Measured values as given in PubChem BioAssay (NCI).
“And” between values parts separate entries of the source, which are not always exact repeats. Identical values can stand only once.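 Interpolation was linear, between the two tested concentrations surrounding the appropriate level; five concentrations were tested over 48 hours in 96-well plates. The concentration for 50% growth inhibition is given as GI50. TGI: total growth inhibition.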

Assays:
Experiment in all cases: inhibition of tumour cell growth, NCI panel, 48 h
[1] = test system: NCI/ADR-RES ovarian
[2] = test system: SK-MEL-5 melanoma
[3] = test system: HOP-92 NSCLC
[4] = test system: OVCAR-8 ovarian
[5] = test system: OVCAR-3 ovarian
[6] = test system: MALME-3M melanoma
[7] = test system: MDA-MB-435
[8] = test system: M14 melanoma
[9] = test system: SF-539 CNS
[10] = test system: U251 CNS
[11] = test system: A549 NSCLC
[12] = test system: EKVX NSCLC
[13] = test system: RPMI-8226 leukemia
[14] = test system: K-562 leukemia
[15] = test system: NCI-H23 lung

SMILES | TGI [1] [µM] | TGI [2] [µM] | TGI [3] | TGI [4] [µM] | TGI [5] [µM] | TGI [6] [µM] | TGI [7] [µM] | TGI [8] | TGI [9] [µM] | TGI [10] [µM] | TGI [11] [µM] | TGI [12] | TGI [13] | TGI [14] | TGI [15] | GI50 [2] | GI50 [13] | GI50 [14]
O=S(=O)(O)c1cc(S(=O)(=O)O)c2c(N=Nc3cccc4ccccc34)c(O)ccc2c1 | > 100 | > 100 | > 100 µM | > 100 | > 100 | > 100 | > 100 | > 100 µM | > 100 | > 100 | > 100 | > 100 µM | > 100 µM | > 100 µM | > 100 µM | – | – | –
O=C(O)c1ccc(Nc2ccnc3cc(Cl)ccc23)cc1O | > 100 | > 100 | > 100 µM | > 100 | > 100 | > 100 | > 100 | > 100 µM | 88.7 | > 100 | > 100 | > 100 µM | > 100 µM | > 100 µM | > 100 µM | – | – | –
COC(=O)[C@H](CCSC)NC(=O)c1ccc(CNC(=O)/C=C/c2cccc(Oc3ccccc3)c2)cc1 | > 100 | 34.5 | 28.1 µM | > 100 | > 93.6 | 37.8 | 32.9 | 26.8 µM | > 100 | > 100 | > 100 | > 100 µM | > 100 µM | > 78.8 µM | > 92.1 µM | – | – | –
Cc1cc(C)c2c(=O)cc(-c3ccc(Cl)cc3)[nH]c2n1 | > 74.3 | > 74.2 | > 100 µM | > 100 | > 100 | > 59.3 | 27.6 | > 100 µM | > 100 | > 100 | > 100 | > 100 µM | > 100 µM | > 71.4 µM | > 100 µM | – | – | –
Cc1ccc(SCC(OCn2cnc3c(N)ncnc32)[C@H](C)F)cc1 (some centres undefined) | > 100 | > 100 | > 100 µM | > 100 | > 100 | > 100 | > 100 | > 100 µM | > 100 | > 100 | > 100 | – | > 100 µM | – | > 100 µM | – | – | –
NCC(=O)C(O)C(O)C(O)CO (centres undefined) | > 100 | > 100 | > 100 µM | > 100 | > 100 | > 100 | > 100 | > 100 µM | > 100 | > 100 | > 100 | > 100 µM | > 100 µM | > 100 µM | > 100 µM | – | – | –
CN(C)c1ccc(N=Nc2cccc3ccoc23)cc1 | > 100 | > 100 | > 100 µM | > 100 | > 100 | > 100 | > 100 | > 100 µM | > 100 | > 100 | > 100 | > 100 µM | > 100 µM | > 100 µM | > 100 µM | – | – | –
CCOC(=O)/C(C#N)=C(/NS(=O)(=O)c1cc(C)c(Cl)cc1[S-])[n+]1ccc(N(C)C)cc1 | > 100 | > 100 | 91.7 µM | > 100 | > 100 | > 100 | > 100 | > 100 µM | > 100 | > 100 | > 100 | > 100 µM | > 100 µM | > 100 µM | > 100 µM | – | – | –
CC1(C)C(O)c2ccccc2OC1N1CCN(C2Oc3ccccc3C(O)C2(C)C)CC1 (centres undefined) | > 100 | > 100 | > 100 µM | > 100 | > 100 | > 100 | > 100 | > 100 µM | > 100 | > 100 | > 100 | > 100 µM | > 100 µM | > 100 µM | > 100 µM | – | – | –
CC1OC(OC2C(OC(=O)[C@]34CCC(C)(C)C[C@H]3C3=CC[C@@H]5[C@@]6(C)CC[C@H](OC7OC(C(=O)O)C(O)C(O)C7O)C(C)(C)[C@@H]6CC[C@@]5(C)[C@]3(C)CC4)OCC(O)C2O)C(O)C(O)C1OC1OCC(O)C(O)C1O (some centres undefined) | > 100 | > 100 | 99.8 µM and 43.7 µM | > 100 | > 100 | > 100 | 34.8 | 56 µM and 35.6 µM | – | > 100 | > 100 | 79.3 µM and 48.4 µM | > 100 µM and 71.5 µM | > 100 µM and 76.9 µM | 42.5 µM and 38.3 µM | > 100 µM and 28.3 µM | 54.5 µM and 25.6 µM | 58.7 µM and 28 µM
C[C@]12CC[C@@H]3c4ccc(OC(=O)c5ccccc5)cc4CC[C@H]3[C@@H]1CCC2OC(=O)c1cccc2c(=O)c3ccccc3[nH]c12 (some centres undefined) | 39.9 | 57.9 | 34.9 µM | 35.7 | > 100 | 46.8 | 15.4 | 37.3 µM | 35.6 | 29.9 | 31.5 | 30.4 µM | > 100 µM | > 100 µM | 48.3 µM | – | – | –
COC(=O)CCc1ccc2c(c1)CCC2 | > 100 | > 100 | > 100 µM | > 100 | > 100 | > 100 | > 100 | > 100 µM | > 100 | > 100 | > 100 | – | > 100 µM | – | > 100 µM | – | – | –
CN(CCc1ccc(Br)cc1)CCN1CCCCC1 | > 100 | 28.2 | 82.8 µM | > 100 | > 100 | 48.7 | 95.3 | 45.8 µM | 64.8 | > 100 | > 100 | > 100 µM | > 100 µM | 41.5 µM | > 100 µM | – | – | –
COC(=O)c1cc(Br)c(C(=O)C(Cl)(Cl)Cl)[nH]1 | > 100 | > 100 | > 100 µM | > 100 | > 100 | > 100 | > 100 | > 100 µM | > 100 | > 100 | > 100 | > 100 µM | > 100 µM | > 100 µM | > 100 µM | – | – | –
CCCCCCCCCCCCCCCCOP(=O)(O)OP(=O)(O)OCC1OC(n2ccc(N)nc2=O)CC1O (centres undefined) | > 100 | > 100 | > 100 µM | > 100 | > 100 | > 100 | > 100 | > 100 µM | > 100 | > 100 | > 100 | > 100 µM | > 100 µM | > 100 µM | > 100 µM | – | – | –
COc1ccc(C)c2c1N[C@](C)([C@]1(C)Nc3c(OC)ccc(C)c3C1=O)C2=O | > 100 | > 100 | > 100 µM | > 100 | > 100 | > 100 | > 100 | > 100 µM | > 100 | > 100 | > 100 | > 100 µM | > 100 µM | > 100 µM | > 100 µM | – | – | –
COC(=O)[C@@H]1O[C@]12C(CO[Si](C)(C)C(C)(C)C)OC(n1ccc(=O)[nH]c1=O)C2O[Si](C)(C)C(C)(C)C (some centres undefined) | > 100 | 51.6 | 88.1 µM | > 100 | 30.8 | – | 58.7 | 30.7 µM | 38 | > 100 | > 100 | 62.6 µM | > 100 µM | > 100 µM | 54.5 µM | – | – | –
CCOC(=O)C(NNS(=O)(=O)c1ccc(C)cc1)S(=O)(=O)C(F)(F)C(F)(F)C(F)(F)C(F)(F)F (centres undefined) | > 100 | > 100 | > 100 µM | > 100 | > 100 | > 100 | > 100 | > 100 µM | > 100 | > 100 | > 100 | > 100 µM | > 100 µM | > 100 µM | > 100 µM | – | – | –
COC(=O)c1cc(C#N)[nH]c1-c1ccsc1 | > 100 | > 100 | > 100 µM | > 100 | > 100 | > 100 | > 100 | > 100 µM | – | > 100 | > 100 | > 100 µM | > 100 µM | > 100 µM | > 100 µM | – | – | –
N#Cc1c(C#N)c(-c2cccc([N+](=O)[O-])c2)n(-c2ccccc2)c1N | > 100 | > 100 | > 100 µM | > 100 | > 100 | > 100 | > 100 | > 100 µM | > 100 | > 100 | > 100 | > 100 µM | > 100 µM | > 100 µM | > 100 µM | – | – | –
Cc1ccc2c(c1)C(=O)/C(=C1/CCc3ccc(C)cc31)C2 | > 100 | > 100 | > 100 µM | > 100 | > 100 | > 100 | > 100 | > 100 µM | > 100 | > 100 | > 100 | > 100 µM | > 100 µM | > 100 µM | > 100 µM | – | – | –
CCOC(=O)c1ccc2c(c1)nc1n2C(c2c(F)cccc2F)SC1 (centres undefined) | 44.9 | 26.1 | > 100 µM | 58.7 | 43.4 | – | > 100 | > 100 µM | 53.1 | > 100 | > 100 | – | > 100 µM | > 100 µM | 77.3 µM | – | – | –
CC(=O)c1ccc(-c2oc(-c3ccccc3)cc2-c2ccc3c(c2)OCO3)s1 | > 100 | > 100 | > 100 µM | > 100 | > 100 | – | 6.08 | > 100 µM | > 100 | > 100 | – | > 100 µM | > 100 µM | > 100 µM | 89.9 µM | – | – | –
CCOC(=O)CSc1nc2ccccc2c(=O)n1N | > 100 | > 100 | > 100 µM | > 100 | > 100 | > 100 | > 100 | > 100 µM | > 100 | > 100 | > 100 | > 100 µM | > 100 µM | > 100 µM | > 100 µM | – | – | –
C=C(Cl)C(C)(Cl)CCC(Cl)C(C)(C)Cl (centres undefined) | > 100 | > 100 | > 100 µM | – | > 100 | > 100 | > 100 | > 100 µM | > 100 | > 100 | > 100 | > 100 µM | 48.7 µM | > 100 µM | > 100 µM | – | – | –
CCOC(=O)CSc1nc(-c2ccc(OC)cc2)c(C#N)c(=O)[nH]1 | > 100 | > 100 | > 100 µM | > 100 | > 100 | – | > 100 | > 100 µM | > 100 | > 100 | > 100 | > 100 µM | > 100 µM | > 100 µM | > 100 µM | – | – | –
COc1cc(-c2c[nH]c3ccccc23)nc(-c2c[nH]c3ccccc23)n1 | 59.6 | 17.9 | 8.53 µM | 19.3 | 19.6 | – | 18.6 | 14.8 µM | 19.8 | 14.9 | 12.5 | 19 µM | 10.6 µM | 17.7 µM | – | – | – | –
O=C(OCc1ccccc1)N1CCNCCNCC1 | > 100 | > 100 | > 100 µM | > 100 | > 100 | – | > 100 | > 100 µM | > 100 | > 100 | > 100 | > 100 µM | > 100 µM | > 100 µM | > 100 µM | – | – | –
CC(=O)OCC1OC(n2c(C)c(N=Nc3ccc(C)cc3)c(C)c(C#N)c2=S)C(OC(C)=O)C(OC(C)=O)C1OC(C)=O (centres undefined) | > 100 | > 100 | 34.2 µM | – | > 100 | > 100 | > 100 | > 100 µM | > 100 | > 100 | > 100 | – | > 100 µM | > 100 µM | > 100 µM | – | – | –
O=c1c2cccnc2[nH]c2ccc3scnc3c12 | > 10 | > 10 | > 10 µM | > 10 | > 10 | > 10 | > 10 | > 10 µM | > 10 | > 10 | > 10 | > 10 µM | > 10 µM | – | > 10 µM | – | – | –
